This is an account of results in patent US9658208B2, “Methods and G proteins for screening and identifying ligands of G protein-coupled receptors” (Fred Hutchinson Cancer Research Center, priority 2011, dated 2017).

For the assay, the system named is odorant receptor (OR) that recognizes vanillin and eugenol (Rho20-eugenol receptor). As to the kind of experiment: CRE-SEAP reporter gene assay, Gαs-coupled odorant receptor. To be noted: HEK-293 cells, 500 uM eugenol, 48 hours. Type of assay: cell-based. An excerpt: A high throughput screening assay was investigated for Gαs-coupled GPCRs based on the CRE-SEAP reporter gene construct, in which five tandem cAMP response elements […] lie upstream of a gene encoding secreted alkaline phosphatase (SEAP) (Durocher et al., Anal Biochem 284: 316-326 (2000)). To ensure the general utility of the CRE-SEAP reporter gene construct for the detection of Gαs-coupled GPCR activation, HEK-293 cells were cotransfected with the CRE-SEAP construct together with expression vectors encoding either a β2-adrenergic receptor or an odorant receptor (OR) that recognizes vanillin and eugenol. Both receptors are GPCRs that couple to Gαs subunits. The HEK-293 cells expressing the β2-adrenergic receptor were grown for 48 hours in the presence or absence of 10 uM isoproterenol. The HEK-293 cells expressing the OR were grown for 48 hours in the presence of 500 uM eugenol. After growing in the presence of the ligands, the cells were assayed for SEAP activity using a fluorescent alkaline phosphatase substrate and a fluorescence plate reader. […]
Following transfection, the cells were maintained for 48 hours in 200 ul serum free media containing either 10 uM isoproterenol (Sigma) or 500 uM eugenol (Sigma). […] Fluorescence was then measured using a CytoFluor 4000 multi well plate reader (Applied Biosystems).

For `C=CCc1ccc(O)c(OC)c1` [eugenol], the SEAP activity result is given as “increase in SEAP activity”.
